Blank lines part the entries; values can stand above or below the compound they belong to.
What was measured:
Giardia = Giardia growth assay in 96 well plates (coulter counter); assay type: cell-based; settings: 48 hours, 37° C., DMSO at or below 0.1%
Method: Methods for evaluating EC50 measurements in Giardia were established. Giardia cells were cultured in 96 well microtiter plates in anaerobic BD Bio-Bags (Becton Dickinson). Growth was assayed with a MoxiZ coulter counter (Orflo Technologies). The TMM and metroinadazole stock solutions contained DMSO to improve solubility. Giardia growth in 96 well plates with various volumes of TYDK media 10 and DMSO concentrations were evaluated over several days at 37° C. Cells grew more consistently in higher volumes of media and noted reduced growth in DMSO concentrations above 0.25%. […] Growth was evaluated after 48 hours.

maltase = test: Stability to maltase hydrolysis (glucose released)
Method: The stability of thiomaltose and maltose was investigated in the presence of maltase. Thiomaltose and maltose were incubated with 10 units of maltase, which is an enzyme that breaks maltose into two glucose molecules. The hydrolysis kinetics of thiomaltose and maltose was determined by quantifying the glucose released from thiomaltose or maltose hydrolysis.

P. aeruginosa = P. aeruginosa growth inhibition (absorption, OD600); assay type: cell-based; settings: up to a 10 μM concentration; multidrug-resistant clinical isolate
Method: TM-R and free radezolid were incubated with P. aeruginosa for 24 hours. OD600 were used to determine the bacteria growth.
P. aeruginosa (5×10^8 CFUs) were incubated with various concentrations of either radezolid or TMR and the MIC was determined via absorption measurements. The P. aeruginosa strain used in this experiment was a clinical isolate, resistant to multiple antibiotics, obtained from a blood stream infection.

SMILES: Cc1ncc([N+](=O)[O-])n1CCO [metronidazole]
- EC50 (Giardia): 1700 nM

SMILES: OCC1OC(SC2C(CO)OC(O)C(O)C2O)C(O)C(O)C1O (stereo not drawn) [thiomaltose]
- hydrolyzed by maltase (maltase; 3 hours, 10 units of maltase): less than 1%
- maltase hydrolysis (in words) (maltase; 3 hours, 10 units of maltase): negligible hydrolysis

- half-life (maltase): ~30 min
- maltase hydrolysis (in words) (maltase; 3 hours, 10 units of maltase): hydrolyzed completely
SMILES: OC[C@H]1O[C@H](O[C@H]2[C@H](O)[C@@H](O)[C@H](O)O[C@@H]2CO)[C@H](O)[C@@H](O)[C@@H]1O [maltose]

SMILES: CC(=O)NC[C@H]1CN(c2ccc(-c3ccc(CNCc4cnn[nH]4)cc3)c(F)c2)C(=O)O1 [radezolid]
- efficacy against P. aeruginosa growth (in words) (P. aeruginosa): no efficacy

Reference: patent US20170274087A1, “SACCHARIDE ANALOGS AND AGENTS FOR THE DIAGNOSIS AND THERAPY OF BACTERIAL INFECTIONS” (Emory University, priority 2014, published 2017)
